Laboratory results reported in PubChem BioAssay AID248 (DTP/NCI, 2004).
Values joined by “and” are separate entries in the source; they are usually repeats but may differ in a detail not shown here. Identical values can stand only once. Toxic doses and inconclusive results are not listed. Rule as the data show it: active = T/C of 150% or more; inactive = T/C below 125%.

System: L1210 leukemia ip in BDF1 mice, survival T/C
Experiment: NCI In Vivo Anticancer Drug Screen. Data for tumor model L1210 Leukemia (intraperitoneal) in B6D2F1 (BDF1) mice
Conditions: endpoint: mean survival time, higher = longer survival
In short: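 Read-out is survival time, reported as the treated-group measurement over the vehicle-control measurement.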

[1] = dose: 100.0 mg/kg/injection, schedule: Q01DX009 (ip), vehicle: Klucel (hydroxypropylcellulose) (HPC)
[2] = dose: 100.0 mg/kg/injection, schedule: Q04DX003 (ip), vehicle: Klucel (hydroxypropylcellulose) (HPC)
[3] = dose: 200.0 mg/kg/injection, schedule: Q01DX009 (ip), vehicle: Klucel (hydroxypropylcellulose) (HPC)
[4] = dose: 200.0 mg/kg/injection, schedule: Q04DX003 (ip), vehicle: Klucel (hydroxypropylcellulose) (HPC)
[5] = dose: 400.0 mg/kg/injection, schedule: Q01DX009 (ip), vehicle: Klucel (hydroxypropylcellulose) (HPC)
[6] = dose: 400.0 mg/kg/injection, schedule: Q04DX003 (ip), vehicle: Klucel (hydroxypropylcellulose) (HPC)
[7] = dose: 100.0 mg/kg/injection, schedule: Q01DX001 (ip), vehicle: saline
[8] = dose: 200.0 mg/kg/injection, schedule: Q01DX001 (ip), vehicle: saline
[9] = dose: 400.0 mg/kg/injection, schedule: Q01DX001 (ip), vehicle: saline
[10] = dose: 100.0 mg/kg/injection, schedule: Q01DX001 (ip), vehicle: carboxymethylcellulose (CMC)
[11] = dose: 200.0 mg/kg/injection, schedule: Q01DX001 (ip), vehicle: carboxymethylcellulose (CMC)
[12] = dose: 400.0 mg/kg/injection, schedule: Q01DX001 (ip), vehicle: carboxymethylcellulose (CMC)

Measured: T/C

CCCCCCCCCCCC[n+]1ccc2ccccc2c1
inactive: dose: 0.05 mg/kg/injection, schedule: Q01DX001 (ip), vehicle: saline 97 % of control | dose: 0.1 mg/kg/injection, schedule: Q01DX001 (ip), vehicle: saline 105 % of control | dose: 0.2 mg/kg/injection, schedule: Q01DX001 (ip), vehicle: saline 100 % of control | dose: 0.4 mg/kg/injection, schedule: Q01DX001 (ip), vehicle: saline 102 % of control | dose: 0.5 mg/kg/injection, schedule: Q01DX001 (ip), vehicle: saline 106 % of control | dose: 0.8 mg/kg/injection, schedule: Q01DX001 (ip), vehicle: saline 100 % of control | dose: 1.0 mg/kg/injection, schedule: Q01DX001 (ip), vehicle: saline 104 % of control | dose: 2.0 mg/kg/injection, schedule: Q01DX001 (ip), vehicle: carboxymethylcellulose (CMC) 109 % of control | dose: 2.0 mg/kg/injection, schedule: Q01DX001 (ip), vehicle: saline 104 % of control | dose: 4.0 mg/kg/injection, schedule: Q01DX001 (ip), vehicle: carboxymethylcellulose (CMC) 96 % of control and 97 % of control | dose: 4.0 mg/kg/injection, schedule: Q01DX001 (ip), vehicle: saline 103 % of control | dose: 8.0 mg/kg/injection, schedule: Q01DX001 (ip), vehicle: carboxymethylcellulose (CMC) 90 % of control and 91 % of control | dose: 8.0 mg/kg/injection, schedule: Q01DX001 (ip), vehicle: saline 96 % of control | dose: 16.0 mg/kg/injection, schedule: Q01DX001 (ip), vehicle: carboxymethylcellulose (CMC) 102 % of control | dose: 8.0 micrograms/kg/injection, schedule: Q01DX015 (ip), vehicle: saline 88 % of control | dose: 16.0 micrograms/kg/injection, schedule: Q01DX015 (ip), vehicle: saline 92 % of control | dose: 32.0 micrograms/kg/injection, schedule: Q01DX015 (ip), vehicle: saline 96 % of control | dose: 64.0 micrograms/kg/injection, schedule: Q01DX015 (ip), vehicle: saline 91 % of control

CCCCCCCS(=O)c1nc2ccccc2s1 (stereo unspecified)
inactive: dose: 100.0 mg/kg/injection, schedule: Q04DX002 (ip), vehicle: other 104 % of control | dose: 200.0 mg/kg/injection, schedule: Q04DX002 (ip), vehicle: other 91 % of control | dose: 400.0 mg/kg/injection, schedule: Q04DX002 (ip), vehicle: other 91 % of control

COc1cccc(CNc2ccc(C)cc2C)c1OC
inactive: [1] 100 % of control | [2] 92 % of control | [3] 107 % of control | [4] 91 % of control | [5] 109 % of control | [6] 97 % of control

CC(C)(CC(=O)O)SCCSC(C)(C)CC(=O)O
inactive: [1] 97 % of control | [3] 95 % of control | [5] 92 % of control

O=S(=O)(/C=C(/Br)c1ccccc1)c1ccccc1
inactive: [7] 92 % of control | [8] 97 % of control | [9] 95 % of control

OC1/C=C\CCCCC1 (stereo unspecified)
inactive: [7] 98 % of control | [8] 93 % of control | [9] 98 % of control

CCN(CC)C1=C(Cl)C(=O)C(N(CC)CC)=C(Cl)C1=O
inactive: dose: 25.0 mg/kg/injection, schedule: Q04DX002 (ip), vehicle: gum acacia 95 % of control | dose: 50.0 mg/kg/injection, schedule: Q04DX002 (ip), vehicle: gum acacia 95 % of control

CCOC(=O)CN(CCN(CC)CC)c1ccc([N+](=O)[O-])cc1[N+](=O)[O-]
inactive: dose: 100.0 mg/kg/injection, schedule: Q01DX001 (ip), vehicle: other 92 % of control | dose: 200.0 mg/kg/injection, schedule: Q01DX001 (ip), vehicle: other 87 % of control | dose: 400.0 mg/kg/injection, schedule: Q01DX001 (ip), vehicle: other 100 % of control

N#CC(C#N)=Cc1c2ccccc2cc2ccccc12
inactive: [2] 94 % of control | [4] 91 % of control | [6] 112 % of control

CCCCCCCCCCCCCCCCCCNC(=O)OCC
inactive: dose: 100.0 mg/kg/injection, schedule: Q04DX002 (sc), vehicle: olive oil, sesame oil, peanut oil 103 % of control | dose: 200.0 mg/kg/injection, schedule: Q04DX002 (sc), vehicle: olive oil, sesame oil, peanut oil 113 % of control | dose: 400.0 mg/kg/injection, schedule: Q04DX002 (sc), vehicle: olive oil, sesame oil, peanut oil 106 % of control

Cc1cc([N+](=O)[O-])c(C)cc1NC(=O)c1ccccc1
inactive: [10] 91 % of control | [11] 92 % of control | [12] 94 % of control

O=C(Nc1ccc(C2=NCCS2)cc1)c1ccc(C(=O)Nc2ccc(C3=NCCS3)cc2)cc1
inactive: dose: 15.0 mg/kg/injection, schedule: Q01DX Z (ip), vehicle: carboxymethylcellulose (CMC) 98 % of control | dose: 30.0 mg/kg/injection, schedule: Q01DX Z (ip), vehicle: carboxymethylcellulose (CMC) 96 % of control | dose: 60.0 mg/kg/injection, schedule: Q01DX Z (ip), vehicle: carboxymethylcellulose (CMC) 95 % of control | dose: 120.0 mg/kg/injection, schedule: Q01DX Z (ip), vehicle: carboxymethylcellulose (CMC) 96 % of control | dose: 125.0 mg/kg/injection, schedule: Q01DX Z (ip), vehicle: water 98 % of control

CC(=O)N1Cc2cccn2Cc2cc3c(cc21)OCO3
inactive: dose: 25.0 mg/kg/injection, schedule: Q04DX002 (ip), vehicle: Klucel (hydroxypropylcellulose) (HPC) 97 % of control | dose: 50.0 mg/kg/injection, schedule: Q04DX002 (ip), vehicle: Klucel (hydroxypropylcellulose) (HPC) 87 % of control | dose: 100.0 mg/kg/injection, schedule: Q04DX002 (ip), vehicle: Klucel (hydroxypropylcellulose) (HPC) 97 % of control

CCCCCCCCCCCCCSCCCCCCCCCCCCSCCCCCCCCCCCC
inactive: dose: 100.0 mg/kg/injection, schedule: Q01DX001 (ip), vehicle: Klucel (hydroxypropylcellulose) (HPC) 89 % of control | dose: 200.0 mg/kg/injection, schedule: Q01DX001 (ip), vehicle: Klucel (hydroxypropylcellulose) (HPC) 88 % of control | dose: 400.0 mg/kg/injection, schedule: Q01DX001 (ip), vehicle: Klucel (hydroxypropylcellulose) (HPC) 89 % of control

CC(C)(O)C1CC1
inactive: dose: 100.0 mg/kg/injection, schedule: Q01DX005 (ip), vehicle: saline with Tween-80 97 % of control | dose: 100.0 mg/kg/injection, schedule: Q01DX009 (ip), vehicle: saline with Tween-80 88 % of control | dose: 100.0 mg/kg/injection, schedule: Q04DX002 (ip), vehicle: saline with Tween-80 101 % of control | dose: 200.0 mg/kg/injection, schedule: Q01DX005 (ip), vehicle: saline with Tween-80 94 % of control | dose: 200.0 mg/kg/injection, schedule: Q01DX009 (ip), vehicle: saline with Tween-80 94 % of control | dose: 200.0 mg/kg/injection, schedule: Q04DX002 (ip), vehicle: saline with Tween-80 108 % of control | dose: 400.0 mg/kg/injection, schedule: Q01DX005 (ip), vehicle: saline with Tween-80 101 % of control | dose: 400.0 mg/kg/injection, schedule: Q01DX009 (ip), vehicle: saline with Tween-80 91 % of control | dose: 400.0 mg/kg/injection, schedule: Q04DX002 (ip), vehicle: saline with Tween-80 96 % of control

CS(=O)CCNC(=O)NS(=O)(=O)c1ccc(Cl)cc1 (stereo unspecified)
inactive: dose: 100.0 mg/kg/injection, schedule: Q04DX003 (ip), vehicle: saline 97 % of control | dose: 200.0 mg/kg/injection, schedule: Q04DX003 (ip), vehicle: saline 98 % of control | dose: 400.0 mg/kg/injection, schedule: Q04DX003 (ip), vehicle: saline 108 % of control

CCN(N=O)c1ccc(/C=C2/C=Cc3ccccc32)cc1
inactive: [10] 95 % of control | [11] 90 % of control | [12] 101 % of control
